Results on five molecules are retold here after article PMC6681301, “Multi-Target β-Protease Inhibitors from Andrographis paniculata: In Silico and In Vitro Studies” (Plants, 2019).

One assay relates to BChE. Also on record: method as in PMID 29850593. Conditions: cited from earlier work.
The test system of the next assay is AChE. Also on record: method as in PMID 29850593. Conditions: cited from earlier work.
The target of another assay is T1, BACE-1 (Homo sapiens, UniProt P56817).
T1 construct: purchased Sigma
As to the kind of experiment: In vitro BACE-1 activity assay (Sigma BACE-1 FRET assay kit). The assay is classed as biochemical. The procedure: The assay was performed according to the manufacturer protocol supplied in BACE-1 activity (Sigma, BACE-1FRET assay kit). […] The BACE-1 substrate solution (50 μM), a BACE-1 enzyme solution (2 μL), and inhibitor solutions were prepared as per the manufacturer’s protocol.
BACE-1 substrate solution was prepared with 1 mg/mL (500 μM) by adding 0.5 ml of DMSO to BACE-1 substrate. 7-Methoxycumarin-4-acetyl-Asn670, Lue 671-Amyloid β/A4 Precursor Protein 770 Fragment 667-(2,4 dinitrophenyl), and Lys-Arg-Arg amide […] salt was used as a substrate for BACE-1. A BACE-1 enzyme solution of ~0.3 unit/μL was prepared. […] The isolated compounds were used for the isolated inhibitor solution preparation. The 5281780 solution (20 μM) with 1% DMSO was prepared after heating the solution at 55 °C for 5 min. The 188316 solution (20 μM) was prepared with 1% DMSO. The 5280443 solution was also prepared with concentration of 20 μM in 1% DMSO. These inhibitor solutions with variable concentrations (1 μM, 2 μM, 3 μM, 4 μM) were used for testing BACE-1 activities. The fluorescence assay buffer (78 μL, 79 μL, 80 μL, 81 μL), a BACE-1 enzyme solution (2 μL), the substrate solution (20 μL), and inhibitor solutions (0 μL, 1 μL, 2 μL, 3 μL, 4 μL) were added to a 96-well plate. Each concentration was considered in triplicate. […] The plate was incubated for 120 min at 37 °C, and the readings were taken. The readings were noted as S120. The percent inhibition was calculated using the formula, percent inhibition = [1 − (S120 − S0)/(C120 − C0)] × 100 [139].

The target of assay [1] is Acetylcholinesterase (Human) (Homo sapiens, UniProt P22303). Nature of the assay: In vitro AChE activity assay (Ellman). The assay is classed as biochemical. As for the experimental part:
(§1) The inhibitory activities of both AChE and BChE were measured using the spectrophotometric method developed by Ellman. Acetylcholinesterase (Human), butyrylcholinesterase (Human) with […] (ACh), and […] (BCh) were used as their substrates, respectively. The enzyme activity was observed using Varioskan Flash (version 4.00.53), and the reading was observed using SkanIt Software (2.4.5 RE for Varioskan Flash). AChE and BChE solutions of ~0.15 unit/μL were prepared. The stock solution of AChE substrate (2.5 μM) and BChE substrate (2.5 μM) solution was prepared with DMSO, respectively.
(§2) The isolated compound inhibitor solutions were prepared using the same method as discussed in the BACE-1 assay. The sodium phosphate buffer (pH 8) (78 μL, 79 μL, 80 μL, 81 μL), 20 μL of the 5, 5′-dithiobis-(2-nitrobenzoic acid) (DTNB), AChE, and BChE enzyme solution (2 μL), substrate solution (20 μL), and inhibitor solutions (0 μL, 1 μL, 2 μL, 3 μL, 4 μL) were added to a 96-well plate. Each concentration was considered in triplicate. The plate was incubated for 15 min at 25 °C, and the readings were taken at 412 nm. The percentage inhibition was calculated using the formula percentage inhibition = (1 − C/I) × 100, where C and I were the enzyme activities without and with the test sample, respectively.
In general terms: Ellman's reagent forms a yellow product with free thiols.

For assay [2], the target named is butyrylcholinesterase (Human) (Homo sapiens, UniProt P06276). As to the kind of experiment: In vitro BChE activity assay (Ellman). The class given is biochemical. The procedure: as §1, §2
Assay [3] deals with glycogen synthase kinase-3b. The note with it: read-out: IC50, inhibition of glycogen synthase kinase-3b; cited from earlier work.
The test system of the next assay is AChE (electric eel). Also on record: method as in PMID 23529036. Conditions: cited from earlier work.
The test system of the next assay is BChE (equine serum). On the set-up: method as in PMID 23529036. Conditions: cited from earlier work.

T1 sequence (P56817 46-501): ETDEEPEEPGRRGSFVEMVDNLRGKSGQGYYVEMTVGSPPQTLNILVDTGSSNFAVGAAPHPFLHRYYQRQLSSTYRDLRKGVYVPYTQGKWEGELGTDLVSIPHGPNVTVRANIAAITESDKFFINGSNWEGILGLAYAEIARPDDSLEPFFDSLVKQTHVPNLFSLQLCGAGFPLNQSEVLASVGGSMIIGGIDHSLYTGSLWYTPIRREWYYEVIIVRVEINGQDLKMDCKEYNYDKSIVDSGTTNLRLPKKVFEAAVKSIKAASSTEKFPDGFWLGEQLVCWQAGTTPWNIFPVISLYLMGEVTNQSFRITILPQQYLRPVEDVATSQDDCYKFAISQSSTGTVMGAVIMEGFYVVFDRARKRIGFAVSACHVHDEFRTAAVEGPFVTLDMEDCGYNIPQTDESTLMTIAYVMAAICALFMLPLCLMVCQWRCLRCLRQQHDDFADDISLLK
Chain of Acetylcholinesterase (Human) (P22303 32-614): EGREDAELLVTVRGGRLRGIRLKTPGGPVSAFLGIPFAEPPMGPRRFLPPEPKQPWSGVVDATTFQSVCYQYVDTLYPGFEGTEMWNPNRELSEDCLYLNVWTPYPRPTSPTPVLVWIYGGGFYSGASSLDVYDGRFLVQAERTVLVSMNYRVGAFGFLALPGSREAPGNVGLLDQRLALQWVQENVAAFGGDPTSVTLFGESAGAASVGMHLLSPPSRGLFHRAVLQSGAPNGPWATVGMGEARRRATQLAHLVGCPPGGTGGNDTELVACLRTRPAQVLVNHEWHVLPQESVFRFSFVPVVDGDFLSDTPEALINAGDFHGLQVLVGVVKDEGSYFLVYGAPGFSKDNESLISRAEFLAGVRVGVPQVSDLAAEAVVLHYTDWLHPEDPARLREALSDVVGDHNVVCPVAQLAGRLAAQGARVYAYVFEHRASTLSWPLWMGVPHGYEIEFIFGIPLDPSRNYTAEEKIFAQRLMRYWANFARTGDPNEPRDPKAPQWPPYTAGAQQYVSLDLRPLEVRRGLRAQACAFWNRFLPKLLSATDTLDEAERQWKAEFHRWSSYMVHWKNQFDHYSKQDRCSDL
Chain of butyrylcholinesterase (Human) (P06276 29-602): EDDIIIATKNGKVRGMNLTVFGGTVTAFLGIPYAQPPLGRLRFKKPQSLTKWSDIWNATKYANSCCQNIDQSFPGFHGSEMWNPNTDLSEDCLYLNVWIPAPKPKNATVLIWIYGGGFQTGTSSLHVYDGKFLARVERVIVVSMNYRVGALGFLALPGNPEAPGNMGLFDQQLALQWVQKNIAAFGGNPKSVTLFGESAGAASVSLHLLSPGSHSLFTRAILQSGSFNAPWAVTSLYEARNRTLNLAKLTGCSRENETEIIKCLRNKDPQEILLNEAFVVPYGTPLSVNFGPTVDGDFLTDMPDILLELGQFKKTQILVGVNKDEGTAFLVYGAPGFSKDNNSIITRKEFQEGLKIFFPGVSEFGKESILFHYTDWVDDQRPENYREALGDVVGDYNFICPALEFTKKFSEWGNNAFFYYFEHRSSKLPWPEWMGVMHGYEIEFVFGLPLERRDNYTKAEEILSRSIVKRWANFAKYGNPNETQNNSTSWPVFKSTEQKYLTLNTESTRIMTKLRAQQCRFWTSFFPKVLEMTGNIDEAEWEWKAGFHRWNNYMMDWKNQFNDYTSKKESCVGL

A word on the IC50: it is the concentration at which inhibition is half-maximal. On to `COc1cc2c(cc1O)C[C@H]1c3c(cc(O)c(OC)c3-2)CCN1C` [Boldine], for which the values for the IC50 in the assay with BChE and with AChE were 321000 nM and 372000 nM, respectively.

Turning to `COc1cc(O)c2c(=O)cc(-c3ccccc3)oc2c1OC` [Compound 188316, 7-o-methylwogonin], the IC50 at BACE-1 came out at 2910 ± 40 nM; in assay [1] it was 2460 ± 30 nM; in assay [2] it was 1460 ± 20 nM. For the same molecule, the “potency relative to eserine” value in assay [1] (comparison of IC50 values (Table 4)) is roughly 1.5 fold.

Turning to `O=c1cc(-c2ccc(O)cc2)oc2cc(O)cc(O)c12` [Compound 5280443, apigenin], the IC50 in assay [3] is 1900 nM; at BACE-1, 3790 ± 260 nM; in assay [1], 3420 ± 20 nM; in assay [2], 1970 ± 10 nM.

`O=C(C=Cc1ccc(O)c(O)c1)OC1CC(O)(C(=O)O)CC(O)C1OC(=O)C=Cc1ccc(O)c(O)c1` (centres unmarked) [Compound 5281780, 3,4-di-o-caffeoylquinic acid]: the IC50 against BACE-1 is 3310 ± 120 nM; in assay [1], 2140 ± 40 nM.

In the case of `CNC(=O)Oc1ccc2c(c1)[C@]1(C)CCN(C)[C@@H]1N2C` [Eserine], the IC50 is […] with AChE (electric eel) and […] with BChE (equine serum).
